Non-standard residues stand in square brackets, D forms with d. Residues, ends and D or L forms follow the SMILES beside them. *: point of attachment. Benzoyl(4-tBu) = CC(C)(C)c1ccc(C(=O)*)cc1; Lys(Et2) = CCN(CC)CCCC[C@H](N)C(=O)O
Legend:
PRC2 = target: T1, PRC2 (Mus musculus, UniProt Q61188); test: Immuno blot of H3K27me3, Ezh2 and Cbx7 in parental TetO-mESCs treated with GSK126; assay type: cell-based
T1 construct: endogenous in cells; host or cells: parental TetO-mESCs (mouse embryonic stem cells derived from haploid mESCs)
Method: Nuclear extract from 10×10^6 mESCs was obtained by lysis in Buffer A (final: 25 mM Hepes ph 7.6, 5 mM MgCl2, 25 mM KCl, 0.05 mM EDTA, 10% Glycerol, 1 mM DTT, 1 mM PMSF, 1× Complete Mini protease inhibitor) followed by collection in RIPA buffer (final: 150 mM NaCl, 1% triton, 0.5% sodium deoxy-cholate, 0.1% SDS, 50 mM Tris pH 8.0). Nuclear extracts were homogenized by sonication in a Diagenode Bioruptor and concentration was determined by Bradford assay (Biorad). 20 μg/lane total protein was run on Novex Life Technology NuPAGE 4-12% Bis-Tris gels in Invitrogen NuPAGE MES SDS Running Buffer and transferred on a Merck Chemicals Immobilon-P Membrane (PVDF […]). The membrane was blocked (5% non-fat dry milk in 1×PBS, 0.1% Tween 20) and incubated with the following primary antibodies (5% non-fat dry milk in 1×PBS, 0.1% Tween 20): H3K27me3 (Diagenode, C15410195), Cbx7 (Abcam, ab21873), RYBP (Sigma, PRS2227), H2AK119ub (Cell Signaling, D27C4), Ezh2 (Active Motif, 39901). Finally, the membrane was incubated with corresponding secondary HRP coupled antibodies (5% non-fat dry milk in 1×PBS, 0.1% Tween 20), developed using Clarity Western ECL Substrate (Biorad) and imaged by a ChemiDoc XRS+ Imaging system (Biorad).

cPRC1-TetO-mESCs = test: Chemical inhibition in cPRC1-TetO-mESCs (TetR-Cbx7 dual GFP/BFP reporter), flow cytometry without and with Dox; assay type: cell-based, mouse; details: for initiation of reporter gene silencing: TetR-Cbx7 tethered, absence of Dox; for maintenance of reporter gene silencing (repression): presence of Dox (1 μg/ml), increasing concentrations of compound

T1 sequence (Q61188 whole entry): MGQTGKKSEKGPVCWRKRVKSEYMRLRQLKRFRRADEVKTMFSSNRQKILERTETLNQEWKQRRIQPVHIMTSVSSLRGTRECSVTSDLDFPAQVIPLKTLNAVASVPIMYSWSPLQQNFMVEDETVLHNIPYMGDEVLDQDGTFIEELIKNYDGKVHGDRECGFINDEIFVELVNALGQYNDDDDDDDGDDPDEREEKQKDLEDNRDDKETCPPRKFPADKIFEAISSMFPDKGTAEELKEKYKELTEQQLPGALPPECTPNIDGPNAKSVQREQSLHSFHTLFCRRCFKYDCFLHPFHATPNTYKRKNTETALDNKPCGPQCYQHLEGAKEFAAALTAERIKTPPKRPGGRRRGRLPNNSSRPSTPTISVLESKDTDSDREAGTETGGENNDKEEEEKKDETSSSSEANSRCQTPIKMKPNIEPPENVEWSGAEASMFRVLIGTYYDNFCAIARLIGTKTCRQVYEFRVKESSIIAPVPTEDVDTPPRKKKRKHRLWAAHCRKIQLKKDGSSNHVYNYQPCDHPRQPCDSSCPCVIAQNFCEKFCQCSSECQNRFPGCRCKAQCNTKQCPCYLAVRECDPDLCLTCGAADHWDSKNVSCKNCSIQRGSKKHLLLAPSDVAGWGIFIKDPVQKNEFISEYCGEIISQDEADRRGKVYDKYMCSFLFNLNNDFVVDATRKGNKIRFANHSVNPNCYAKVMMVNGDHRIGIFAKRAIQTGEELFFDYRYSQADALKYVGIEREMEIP
T1 sequence (Q921E6 whole entry partner): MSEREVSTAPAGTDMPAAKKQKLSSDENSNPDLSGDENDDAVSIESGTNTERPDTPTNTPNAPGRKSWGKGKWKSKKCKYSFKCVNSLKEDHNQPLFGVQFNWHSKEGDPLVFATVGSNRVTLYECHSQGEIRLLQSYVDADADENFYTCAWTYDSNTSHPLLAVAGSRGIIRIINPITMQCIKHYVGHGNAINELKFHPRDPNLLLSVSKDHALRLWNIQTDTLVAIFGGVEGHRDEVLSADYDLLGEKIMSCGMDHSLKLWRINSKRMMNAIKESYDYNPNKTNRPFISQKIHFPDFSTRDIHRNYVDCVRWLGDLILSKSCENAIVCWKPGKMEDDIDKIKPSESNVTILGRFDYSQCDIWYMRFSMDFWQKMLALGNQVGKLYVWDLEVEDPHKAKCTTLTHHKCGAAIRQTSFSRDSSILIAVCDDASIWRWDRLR
T1 sequence (Q80U70 whole entry partner): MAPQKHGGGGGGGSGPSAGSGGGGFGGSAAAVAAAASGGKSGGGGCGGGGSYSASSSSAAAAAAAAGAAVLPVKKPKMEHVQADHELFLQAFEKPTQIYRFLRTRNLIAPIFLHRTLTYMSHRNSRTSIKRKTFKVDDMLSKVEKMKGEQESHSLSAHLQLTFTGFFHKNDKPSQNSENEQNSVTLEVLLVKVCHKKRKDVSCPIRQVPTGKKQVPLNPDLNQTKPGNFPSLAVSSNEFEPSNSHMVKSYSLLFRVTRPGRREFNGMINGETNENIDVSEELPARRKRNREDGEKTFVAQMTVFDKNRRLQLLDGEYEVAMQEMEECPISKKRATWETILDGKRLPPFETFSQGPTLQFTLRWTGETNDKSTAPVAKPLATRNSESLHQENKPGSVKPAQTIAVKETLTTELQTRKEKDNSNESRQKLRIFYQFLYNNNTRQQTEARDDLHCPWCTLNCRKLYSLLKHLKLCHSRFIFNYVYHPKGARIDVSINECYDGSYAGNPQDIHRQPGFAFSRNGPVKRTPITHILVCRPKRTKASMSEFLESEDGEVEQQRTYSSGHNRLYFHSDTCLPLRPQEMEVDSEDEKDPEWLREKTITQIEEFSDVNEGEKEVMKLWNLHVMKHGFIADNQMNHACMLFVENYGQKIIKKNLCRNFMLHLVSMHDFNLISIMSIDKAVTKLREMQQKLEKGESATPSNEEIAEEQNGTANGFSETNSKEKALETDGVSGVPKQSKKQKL
T1 sequence (Q60972 whole entry partner): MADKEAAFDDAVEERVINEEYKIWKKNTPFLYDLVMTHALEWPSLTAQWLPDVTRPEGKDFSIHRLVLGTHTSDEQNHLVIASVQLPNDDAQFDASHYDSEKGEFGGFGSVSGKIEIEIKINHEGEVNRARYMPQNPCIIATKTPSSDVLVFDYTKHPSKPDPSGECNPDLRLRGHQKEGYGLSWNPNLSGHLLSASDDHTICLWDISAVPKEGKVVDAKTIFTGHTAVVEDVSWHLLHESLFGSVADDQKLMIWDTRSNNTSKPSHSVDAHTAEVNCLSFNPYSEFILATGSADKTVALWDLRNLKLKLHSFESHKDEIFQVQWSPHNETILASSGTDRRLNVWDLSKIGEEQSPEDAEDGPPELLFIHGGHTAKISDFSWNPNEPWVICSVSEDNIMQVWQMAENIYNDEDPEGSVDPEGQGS

H3K27me3 by Western blot (PRC2; GSK126-treated parental mESCs (4 μM per FIG. 10A))	inhibition of the catalytic activity of PRC2 (PRC2; parental TetO-mESCs, 4 μM GSK126, immuno blot)	endogenous PRC2 and cPRC1 stability (PRC2; parental TetO-mESCs, 4 μM GSK126, immuno blot of Ezh2 and Cbx7)	SMILES	initiation of reporter gene silencing (cPRC1-TetO-mESCs)	reduction in silencing, distal BFP reporter compared with proximal GFP reporter (cPRC1-TetO-mESCs; presence of Dox)	maintenance of reporter gene silencing (repression) (cPRC1-TetO-mESCs)
undetectable	specific and reversible inhibition	without disrupting	CC[C@H](C)n1cc(C)c2c(C(=O)NCc3c(C)cc(C)[nH]c3=O)cc(-c3ccc(N4CCNCC4)nc3)cc21 [GSK126]	did not disrupt	more prominent at the distal BFP reporter than the proximal GFP promoter	reduced by GSK126-treatment in a dose-dependent manner
–	–	–	CCN(CC)CCCC[C@H](NC(=O)[C@H](CC(C)C)NC(=O)[C@H](C)NC(=O)[C@H](Cc1ccccc1)NC(=O)c1ccc(C(C)(C)C)cc1)C(=O)N[C@@H](CO)C(=O)OC [UNC3866] ({Benzoyl(4-tBu)}-FAL[Lys(Et2)]S-OMe)	Neither compound had a significant effect	–	disrupted only by UNC3866 treatment in a dose-dependent manner
